The values below come from publication PMC6263107 (Journal of Enzyme Inhibition and Medicinal Chemistry, 2018).

For data set [1], the system named is SH-SY5Y cells. As to the kind of experiment: Neuroprotection against Aβ1–40 peptide-induced cell death (MTT). Conditions: for Aβ1–40 (%) neuroprotection: Aβ 1–40 30 µM. The class given is cell-based, human. The method, then:
(§1) SH-SY5Y cell culture and treatment with compounds 2b–d and 2f. The cultures of human SH-SY5Y neuroblastoma cells kept under a CO2/air (5%/95%) humidified atmosphere at 37 °C for 24 h were treated with 100 µl of the test compounds or DMSO (0.1%) in DMEM/F12 (1:1) medium supplemented with 1% fetal bovine serum, 1X non-essential amino acids, 100 units/ml penicillin and 10 mg/ml streptomycin. Treatment medium was renewed every day for up to 48 h of treatment. MTT assay was then performed.
(§2) SH-SY5Y cells were seeded in 96-well culture plates at a density of 8 × 10^4 cells per well in DMEM/F12 (1:1) medium supplemented with 10% fetal bovine serum, 1X non-essential amino acids, 100 units/mL penicillin and 10 mg/mL streptomycin (Dutscher, France). After 24 h of incubation, the cultures were treated with 100 µl of the test compounds or DMSO (0.1%) in the same medium. Following 24 h, the cells were co-incubated with oligomycin A (10 µM)/rotenone (30 µM) (Sigma, France) or Aβ 1–40 (30 µM) with or without the tested compounds 2b–d and 2f at nontoxic concentrations against cells for an additional period of 24 h. MTT assay was then performed to determine the % of cell viability.
(§3) The ability to prevent the human neuroblastoma cell line SH-SY5Y cell death induced by toxic insults such as Αβ 1–40, implicated in ROS production and apoptosis-related signalling pathways, and oligomycin/rotenone (O/R)[39], was then assayed to determine the neuroprotective capacity of the four less hepatotoxic KTs 2b–d and 2f at nontoxic concentration against SH-SY5Y 3 and 10 µM, using melatonin and KA as reference molecules. For the evaluation of the neuroprotective effect, the cytotoxicity of O/R (10 µM/30 µM) on SH-SY5Y cell viability was determined as well as the toxicity of the selected KTs 2b–d and 2f at.

The subject of data set [2] is SH-SY5Y cells. Briefly: Neuroprotection against oligomycin/rotenone-induced cell death (MTT). The class given is cell-based, human. The settings on record: O 10 µM / R 30 µM. The method, then:
as §1, §2, §3

Data set [3] is described as follows: Oxygen radical absorbance capacity assay (ORAC-FL). The settings on record: for ORAC: ORAC-FL, Trolox equivalents. The method, then: The antioxidant activity of KTs was determined using the ORAC-FL method described by Dávalos et al.[30] using fluorescein as a fluorescent probe with minor modification. Briefly, fluorescein and antioxidant were incubated in a black 96-well microplate (Nunc) for 15 min at 37 °C. The 2,2’-azobis(amidinopropane) dihydrochloride (AAPH) was then added quickly using the built-in injector of Varioskan Flash plate reader (Thermo Scientific).
Results are expressed in the Trolox equivalents (TE) unit in relation to radical scavenging properties of Trolox.

Data set [4] relates to SH-SY5Y cells. Briefly: Neuroprotection against Aβ1–40 peptide-induced cell death (MTT). The class given is cell-based, human. Conditions: compound 1 µM; Aβ 1–40 30 µM.
Data set [5] relates to SH-SY5Y cells. As to the kind of experiment: Neuroprotection against oligomycin/rotenone-induced cell death (MTT). The settings on record: compound 1 µM; O 10 µM / R 30 µM. Type of data set: cell-based, human.
In another data set the target is EeAChE (Electrophorus electricus, UniProt O42275). Briefly: biochemical. The settings on record: for IC50: mean ± SEM. The procedure: (§4) Ellman’s protocol was followed to perform the anticholinesterasic activity. Briefly, the reaction was carried out in a final volume of 3 ml of a phosphate-buffered solution (0.1 M) at pH =8.0 containing (2.625 µl, 0.35 mM) of 5,5’-dithiobis-2-nitrobenzoic acid (DTNB), 40 µl 1% w/v Bovine Albumin Serum phosphate-buffered solution (BSA), (29 µl, 0.035 U/ml) of EeAChE or (60 µl, 0.05 U/ml) of eqBuChE, and 3 µl of tested compound, which were incubated for 10 min. Then, the acetylthiocholine iodide or butyrylthiocholine was added, and the reaction was incubated for additional 15 min. The activity in absence of compound was used as control.
Sequence of EeAChE (O42275 24-633): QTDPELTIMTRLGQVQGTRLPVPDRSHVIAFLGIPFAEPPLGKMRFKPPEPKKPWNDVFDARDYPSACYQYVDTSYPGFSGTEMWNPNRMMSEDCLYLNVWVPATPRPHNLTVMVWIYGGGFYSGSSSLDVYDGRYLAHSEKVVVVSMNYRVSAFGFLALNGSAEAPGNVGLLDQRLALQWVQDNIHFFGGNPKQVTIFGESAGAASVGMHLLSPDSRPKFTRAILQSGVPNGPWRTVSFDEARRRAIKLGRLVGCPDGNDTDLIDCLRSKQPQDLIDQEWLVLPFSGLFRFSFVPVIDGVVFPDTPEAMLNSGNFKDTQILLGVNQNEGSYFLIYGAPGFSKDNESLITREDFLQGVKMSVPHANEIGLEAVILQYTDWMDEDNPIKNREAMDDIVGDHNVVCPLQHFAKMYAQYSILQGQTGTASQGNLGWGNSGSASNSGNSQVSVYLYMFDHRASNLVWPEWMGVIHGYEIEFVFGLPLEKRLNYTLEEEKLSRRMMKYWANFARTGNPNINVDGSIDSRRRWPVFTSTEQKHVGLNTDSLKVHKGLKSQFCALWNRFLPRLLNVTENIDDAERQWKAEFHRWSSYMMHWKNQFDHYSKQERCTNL

The target in another data set is T1, eqBuChE (Equus caballus, UniProt P81908).
T1 construct: serum horse BuChE (eqBuChE); from tissue; host or cells: horse serum
T1 sequence (P81908 whole entry): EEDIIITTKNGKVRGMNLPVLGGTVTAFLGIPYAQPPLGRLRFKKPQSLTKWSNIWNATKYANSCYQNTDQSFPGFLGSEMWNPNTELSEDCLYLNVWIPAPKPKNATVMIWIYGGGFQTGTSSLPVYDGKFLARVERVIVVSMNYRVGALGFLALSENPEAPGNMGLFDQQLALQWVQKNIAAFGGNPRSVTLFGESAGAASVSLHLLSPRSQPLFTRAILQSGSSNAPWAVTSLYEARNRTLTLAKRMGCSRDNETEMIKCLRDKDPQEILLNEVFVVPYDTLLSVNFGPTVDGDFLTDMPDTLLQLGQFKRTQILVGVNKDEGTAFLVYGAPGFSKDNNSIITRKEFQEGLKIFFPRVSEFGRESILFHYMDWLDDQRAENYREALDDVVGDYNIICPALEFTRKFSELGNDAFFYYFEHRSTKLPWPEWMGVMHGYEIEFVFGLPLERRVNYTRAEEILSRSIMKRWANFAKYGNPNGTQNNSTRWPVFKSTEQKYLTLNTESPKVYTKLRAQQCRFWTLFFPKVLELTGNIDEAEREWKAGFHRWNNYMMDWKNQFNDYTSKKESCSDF
As to the kind of experiment: biochemical. The settings on record: for IC50: mean ± SEM. The procedure:
as §4

For the next data set, the system named is HepG2 cells. As to the kind of experiment: in vitro. The class given is cell-based. The procedure: (§5) The culture medium was refreshed after 24 h of incubation and 100 µl of six different concentrations (1–1000 µM) of test compounds or DMSO (0.1%) were then added. The cell viability was monitored by colourimetric assay with 3-[4,5-dimethylthiazol-2-yl]-2,5-diphenyl-tetrazolium bromide (MTT).
(§6) In this sense, all new KTs were submitted to the in vitro cell viability test (MTT assay) using human hepatocellular carcinoma cell line (HepG2)[26], as the most accepted probe to evaluate hepatotoxic effects. For this experiment, six different concentrations from 1 to 1000 µM were used.

Another data set in a line: in vitro. The settings on record: human, HepG2 cells, percent of cell viability vs DMSO-treated control, read-out: HepG2 cell viability. The class given is cell-based. The method, then: as §5, §6
The target in the next data set is T2, hAChE (Homo sapiens, UniProt P22303).
T2 construct: 10 µl of cholinesterase obtained from human erythrocyte hemolyzate, out of blood samples; from tissue; host or cells: human erythrocyte hemolysate from blood samples
T2 sequence (P22303 32-617 isoform P22303-2 limits assumed): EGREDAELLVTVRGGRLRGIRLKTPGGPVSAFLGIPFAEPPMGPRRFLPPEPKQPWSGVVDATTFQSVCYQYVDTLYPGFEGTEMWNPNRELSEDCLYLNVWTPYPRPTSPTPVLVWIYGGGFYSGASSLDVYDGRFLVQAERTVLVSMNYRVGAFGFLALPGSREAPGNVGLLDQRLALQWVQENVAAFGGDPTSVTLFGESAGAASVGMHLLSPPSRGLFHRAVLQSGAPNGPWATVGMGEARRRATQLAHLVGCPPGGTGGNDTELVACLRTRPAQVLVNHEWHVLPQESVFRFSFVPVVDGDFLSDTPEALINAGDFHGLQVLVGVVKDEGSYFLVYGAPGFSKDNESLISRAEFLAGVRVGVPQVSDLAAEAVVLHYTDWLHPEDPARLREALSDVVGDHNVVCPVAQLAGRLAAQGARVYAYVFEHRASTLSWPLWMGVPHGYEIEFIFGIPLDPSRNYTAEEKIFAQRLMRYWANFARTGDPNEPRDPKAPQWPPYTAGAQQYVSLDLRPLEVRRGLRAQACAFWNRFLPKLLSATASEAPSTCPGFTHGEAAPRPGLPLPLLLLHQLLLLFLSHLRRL
Briefly: biochemical. Conditions: for IC50: mean ± SEM. The method, then: This blend was preincubated for 5 min and 20 µl of 0.01 M substrate (ATCh or BTCh) was added to initiate the reaction. […] The IC50 values are expressed as a mean ± SEM.
Next, as planned at the beginning of the project, the analysis of the antioxidant capacity of KT 2a–d, 2f–h, and 2l was carried out.

Data set [6] relates to SH-SY5Y cells. Briefly: Toxicity of compounds on SH-SY5Y cells (MTT). Type of data set: cell-based. Conditions: at 10 µM. The procedure: as §1
Data set [7] has as its system SH-SY5Y cells. Also noted: method as in PMID 27736061. The settings on record: Aβ 1–40 30 µM, cited from earlier work.
For data set [8], the system named is SH-SY5Y cells. On the set-up: method as in PMID 27736061. The settings on record: O 10 µM / R 30 µM, cited from earlier work.

Structures are written as SMILES. Where “and” joins values, the source holds several entries; their conditions need not be identical. Equal entries are not always repeated. Where two headings read alike, the source gives them in different places.

On to `O=c1cc(CO)occ1O` [KA, kojic acid, reference compound], for which the results for the “Aβ1–40 (%) neuroprotection” value in the data set with SH-SY5Y cells [1] (compound 3 µM) and in the data set on SH-SY5Y cells [4] were 65.11 ± 0.20 % and 51.56 ± 0.18 %, respectively. Moreover, the “O/R (%) neuroprotection” value with SH-SY5Y cells [2] (compound 3 µM) and in the data set with SH-SY5Y cells [5] was “np” in each case. In addition, the ORAC in data set [3] was 2.51 TE and 2.51 ± 0.17 TE.
For `Cc1ccc(C2c3oc(CO)cc(=O)c3Oc3nc4c(c(N)c32)CCCC4)cc1` (centres unmarked) [KT2b], half-maximal inhibition on EeAChE (IC50) required 1.4 µM. On eqBuChE, this compound registered an IC50 of 10.09 ± 0.09 µM. Moreover, the “Aβ1–40 (%) neuroprotection” value in the data set with SH-SY5Y cells [1] (compound 3 µM) turned out to be 27.85 ± 0.15 %. For the same compound, in the data set with SH-SY5Y cells [1] (compound 10 µM), the “Aβ1–40 (%) neuroprotection” value is on record as “np”. Further, the “neuroprotective activity” value with SH-SY5Y cells [1] (on any of the toxic insults investigated (O/R, Aβ 1–40)) is “very poor neuroprotective activity”. Moreover, in the data set on SH-SY5Y cells [2] (compound 3 µM), the “O/R (%) neuroprotection” value was found to be 19.66 ± 0.07%. For the same compound, the “O/R (%) neuroprotection” value in the data set with SH-SY5Y cells [2] (compound 10 µM) is on record as 3.65 ± 0.07%. Besides, the ORAC in data set [3] is 2.96±0.18 TE. The “HepG2 toxicity” value in the data set on HepG2 cells (concentrations up to 1000 µM) is recorded as “no significant toxicity”. In the data set “in vitro”, the viability at 1 µM worked out at 105 ± 3.1%, the viability at 3 µM came to 110 ± 3.2%, the viability at 10 µM came to 105 ± 1.9% and the viability at 30 µM is 107 ± 2.9%. In “in vitro”, the viability at 100 µM was found to be 113 ± 8.4%, the viability at 300 µM came to 108 ± 5.7% and the viability at 1000 µM came to 87.9 ± 5.2%. In addition, the midpoint of inhibition against hAChE, the IC50, lay at 13.7 ± 1.7 µM.
Compound `COc1cccc(C2c3oc(CO)cc(=O)c3Oc3nc4c(c(N)c32)CCCC4)c1` (centres unmarked) [KT2d, 11-amino-2-(hydroxymethyl)-12-(3-methoxyphenyl)-7,9,10,12-tetrahydropyrano [2',3':5,6] pyrano[2,3-b]quinolin-4(8H)-one] yielded an IC50 at EeAChE of 0.64 ± 0.06 µM. Besides, the “fold less active than tacrine (EeAChE)” value on EeAChE (ratio of IC50 values vs tacrine) was “approximately 20 fold”. This compound also showed an inhibition at 10 µM on eqBuChE (at 10 μM, Table 2 footnote b) of under 50%. Also, the “neuroprotection against Aβ 1–40” value with SH-SY5Y cells [1] (at 3 µM and 10 µM) is “significant and similar neuroprotection”. For the same compound, in the data set with SH-SY5Y cells [1] (compound 3 µM), the “Aβ1–40 (%) neuroprotection” value came to 42.92 ± 0.20 %. In addition, the “Aβ1–40 (%) neuroprotection” value with SH-SY5Y cells [1] (compound 10 µM) is 41.19 ± 0.18 %. Moreover, the “O/R (%) neuroprotection” value in the data set on SH-SY5Y cells [2] (compound 3 µM) is recorded as 24.35 ± 0.05 %. For the same compound, the “O/R (%) neuroprotection” value in the data set with SH-SY5Y cells [2] (compound 10 µM) was 12.53 ± 0.09%. Moreover, in the data set on SH-SY5Y cells [6], the “toxicity for SH-SY5Y cells” value is reported as “nontoxic”. Besides, in [3], the ORAC came to 4.79 TE. The ORAC in data set [3] (listed as 2d) was determined as 4.79±0.39 TE. The “fold more potent than FA (ORAC)” value in data set [3] (vs ferulic acid) amounted to 1.3 fold. Further, in the data set with HepG2 cells (at 1000 µM), the “fold less toxic than tacrine (HepG2)” value is listed as “six-fold less-hepatotoxic than tacrine”. In “in vitro”, the viability at 1 µM came to 101 ± 2.5%, the viability at 3 µM came out at 98 ± 4.1%, the viability at 10 µM was determined as 102 ± 3.2% and the viability at 30 µM is 102 ± 1.8%. Also, in “in vitro”, the viability at 100 µM was found to be 99 ± 1.1%, the viability at 300 µM was found to be 87.2 ± 6.1% and the viability at 1000 µM is 65.5 ± 1.3%. Moreover, the IC50 against hAChE is 4.52 ± 0.24 µM.
`Nc1c2c(nc3c1C(c1ccccc1F)c1oc(CO)cc(=O)c1O3)CCCC2` (centres unmarked) [KT2f] displayed an IC50 against EeAChE of 2.11 ± 0.01 µM. Besides, on eqBuChE, half-maximal inhibition (IC50) was put at 6.69 ± 0.1 µM. In addition, the “Aβ1–40 (%) neuroprotection” value in the data set with SH-SY5Y cells [1] (compound 3 µM) turned out to be 25.10 ± 0.06 %. Moreover, the “Aβ1–40 (%) neuroprotection” value in the data set with SH-SY5Y cells [1] (compound 10 µM) came to 4.1 ± 0.04%. Besides, the “O/R (%) neuroprotection” value with SH-SY5Y cells [2] (compound 3 µM) is given as 16.50 ± 0.07%. Besides, the “O/R (%) neuroprotection” value in the data set on SH-SY5Y cells [2] (compound 10 µM) is on record as “np”. Also, the ORAC in [3] came out at 3.85±0.42 TE. Besides, in the data set “in vitro”, the viability at 1 µM was 108 ± 6.2%, the viability at 3 µM was 96.1 ± 2.5%, the viability at 10 µM was determined as 99.2 ± 2.8% and the viability at 30 µM was 102 ± 7.1%. In the data set “in vitro”, the viability at 100 µM was found to be 101 ± 9.2%, the viability at 300 µM was 95.3 ± 4.1% and the viability at 1000 µM stood at 64 ± 8%. The compound also gave an inhibition at 10 µM on hAChE (at 10 μM, Table 2 footnote b) of under 50%.
Take `COc1ccc2[nH]cc(CCNC(C)=O)c2c1` [Melatonin, melatonin]: the “Aβ1–40 (%) neuroprotection” value with SH-SY5Y cells [7] (compound 1 µM) is on record as 35.5 ± 4.1 %; with SH-SY5Y cells [7] (compound 3 µM), 60.2 ± 3.57 %. The results for the “O/R (%) neuroprotection” value with SH-SY5Y cells [8] (compound 1 µM) and with SH-SY5Y cells [8] (compound 3 µM) were 50.1 ± 3.42 % and 59.1 ± 4.50 %, respectively.

As usually defined, the IC50 is the point on the concentration scale where inhibition reaches its midpoint. The low end stands for greater potency, the high end for weaker potency. A word on the viability: it is a read-out of living cells in per cent, often relative to untreated cells. What is called inhibition is the relative decrease from the control value, in per cent.
